# Data taken from US20160160189A1, “Truncated Constructs of RIPK3 and Related Uses” (ST. JUDE CHILDREN'S RESEARCH HOSPITAL, priority 2013, published 2016).
# Peptide text beside a SMILES is read from it. * marks the point of attachment. Cbz = O=C(OCc1ccccc1)*; CH2F = FC*
# Assays:
# [1] = system: NIH-3T3 cells expressing RIPK3-2xFv; test: AP1-induced RIPK3 oligomerization cell death, IncuCyte imaging; format: cell-based, murine; details: AP1; zVAD 50 μM, Nec1 30 μM
# Text: (§1) Consequently, two Fv domains were attached to the C-terminus of RIPK3, creating a RIPK3-2xFv construct, with the goal of promoting AP1-induced crosslinking and oligomerization independent of the RHIM domain. See, FIG. 12A. […] Compare, FIGS. 16A and 15A, respectively. […] Cells expressing this RHIM-deficient RIPK3^ΔC-2xFv construct were nonresponsive to TNF+zVAD, previously reported to be dependent on RIPK1 RHIM/RIPK3 RHIM interactions. See, FIG. 13G. […] See, FIG. 16C and FIG. 16D, respectively. […] See, FIG. 16E. […] See, FIG. 16F.
# (§2) Cell death assays were carried out using a 2-color IncuCyte Zoom in-incubator imaging system (Essen Biosciences.) Briefly, this system allows fully automated imaging of cells at set intervals in phase contrast as well as both red and green fluorescent channels. Cell death assays were carried out by treating cells with death-inducing compounds in 24 well tissue culture vessels (100,000 cells/well), in the presence of 100 nM of the cell-impermeable DNA binding fluorescent dyes Sytox Green (Life Technologies 57020) or Yoyo-3 (Y3606), which are excluded from healthy cells but rapidly enter dying cells upon membrane permeabilization, in a manner analogous to propidium iodide.
# (§3) Resulting images were analyzed using the software package supplied with the IncuCyte imager, which allows precise analysis of the number of Sytox Green or Yoyo-3 positive cells present in each image. For each experiment, a minimum of three separate wells were treated with each experimental condition, and a minimum of 4 image fields were assessed per well. Percent cell death was calculated by treating a minimum of three distinct wells in each experiment with 100 nM of the cell permeable fluorescent dye Syto Green (S7559), which allows quantification of the total number of cells present in each field. Dead cell events acquired via Sytox Green or Yoyo-3 staining were divided by this total cell number to yield percent cell death at each timepoint. Error bars represent standard deviation from the mean of a minimum of three independent wells. Each result depicted is representative of at least 4 distinct experiments, each of which contained at least 3 technical replicates.
# [2] = system: NIH-3T3 cells expressing RIPK3^ΔC-2xFv; test: as above; format: cell-based, murine; details: zVAD 50 μM, Nec1 30 μM
# Text: as §1, §2, §3
# [3] = system: Cells expressing RIPK3ΔC-FKBPx2; test: Homodimerizer-induced truncated RIPK3 necrosis, PI uptake; format: cell-based; details: homodimerizer 1-100 nM, PI uptake at 3 hrs
# Protocol: (§4) FIG. 6 provides a schematic for inducible RIPK-necrosis. Two systems for inducible RIPK-necrosis. […] Cell death in cells expressing RIPK1-FRB/RIPK3-FKBP and treated with heterodimerizer, and death was detected with annexin V-FITC. Death was inhibited by necrostatin-1 (not shown) (FIG. 6B). Cells expressing RIPK3ΔC-FKBPx2, treated with homodimerizer (1-100 nM); death was detected at 3 hrs by PI uptake. No effect of zVAD-fmk or necrostatin was observed (FIG. 6B).
# (§5) An inducible dimer system has been employed to trigger homodimerization of caspase-8 in cells (27). The data provided herein support methods to induce RIPK-dependent necrosis by related approaches (FIG. 6A). Heterodimerization of RIPK1 and RIPK3 results in necrosis (see FIG. 6B) which is enhanced by inhibition of caspases and blocked by inhibition of RIPK1 (with nec1, data not shown). In contrast, truncated RIPK3 (lacking the RHIM domain for interaction with RIPK1) can only be oligomerized when FKBP domains (e.g., for example, two domains) that allow multiple monomers to be brought together by the dimerizing agent. Addition of the homodimerization agent to cells expressing this construct induces extremely rapid necrosis that that depends on the kinase activity of RIPK3, but is not affected by inhibition of caspases or nec1 treatment (FIG. 6C).
# [4] = system: NIH-3T3 cells stably expressing RIPK3-1xFv; test: TNF-induced necroptosis, IncuCyte imaging; format: cell-based, murine; details: recombinant TNF with zVAD; Nec1 30 μM, TNFR1-Fc 200 ng/ml
# Protocol: Expression of RIPK3-1xFv sensitized these cells to necroptosis induced by the combination of TNF and a caspase inhibitor (zVAD) in a manner analogous to that observed in Jax cells, a murine fibroblast line that expresses endogenous RIPK3. See, FIG. 13C. […]
# Resulting images were analyzed using the software package supplied with the IncuCyte imager, which allows precise analysis of the number of Sytox Green or Yoyo-3 positive cells present in each image. For each experiment, a minimum of three separate wells were treated with each experimental condition, and a minimum of 4 image fields were assessed per well. Percent cell death was calculated by treating a minimum of three distinct wells in each experiment with 100 nM of the cell permeable fluorescent dye Syto Green (S7559), which allows quantification of the total number of cells present in each field. […]
# [5] = system: cells expressing RIPK1-FRB/RIPK3-FKBP; test: Heterodimerizer-induced RIPK1/RIPK3 necrosis, annexin V-FITC; format: cell-based; details: data not shown
# Protocol: as §4, §5
SMILES,effect of inhibitor on magnitude or kinetics of cell death [1],effect of inhibitor on magnitude or kinetics of cell death [2],effect on homodimerizer-induced death [3],effect on TNF-induced necroptosis [4],effect on heterodimerizer-induced death [5],effect on heterodimerizer-induced death ([5]; listed as nec1),effect on homodimerizer-induced death ([3]; listed as nec1)
COC(=O)C[C@H](NC(=O)[C@H](C)NC(=O)[C@@H](NC(=O)OCc1ccccc1)C(C)C)C(=O)CF [zVAD] (Cbz-Val-Ala-Asp(OMe)-CH2F),did not alter magnitude or kinetics of cell death,did not alter magnitude or kinetics of cell death,No effect,–,–,–,–
"CN1C(=O)C(Cc2c[nH]c3ccccc23)NC1=S (stereo not shown) [necrostatin-1, Necrostatin-1]",did not alter magnitude or kinetics of cell death,did not alter magnitude or kinetics of cell death,No effect,blocks,inhibited,blocked,not affected
